Test results reported in ChEMBL document CHEMBL5154926, “Discovery of a Novel Series of Imipridone Compounds as Homo sapiens Caseinolytic Protease P Agonists with Potent Antitumor Activities In Vitro and In Vivo” (J Med Chem, 2022).
In brackets after ≈: the same amount, converted by molar mass. Activity calls are given as the source filed them. The rule behind the calls is not given here.

Tests used:
[1] = biological target: T1, ATP-dependent Clp protease proteolytic subunit, mitochondrial (Homo sapiens, UniProt Q16740); test: Agonist activity at human CLpP (57 to 277 amino acids) expressed in Escherichia coli using fluorogenic peptide AC-WLA-AMC as substrate incubated for 10 mins by fluorescence based assay
HCT-116 [2] = test: cells; conditions: Homo sapiens, HCT-116, 48 h
Description: Antiproliferative activity against human HCT-116 cells incubated for 48 hrs by CCK-8 assay

DLD-1 = test: cells; conditions: Homo sapiens, DLD-1, 48 h
Description: Antiproliferative activity against human DLD-1 cells incubated for 48 hrs by CCK-8 assay

HT-29 = test: cells; conditions: Homo sapiens, HT-29, 48 h
Description: Antiproliferative activity against human HT-29 cells incubated for 48 hrs by CCK-8 assay

HCT-15 = test: cells; conditions: Homo sapiens, HCT-15, 48 h
Description: Antiproliferative activity against human HCT-15 cells incubated for 48 hrs by CCK-8 assay

SW480 = test: cells; conditions: Homo sapiens, SW480, 48 h
Description: Antiproliferative activity against human SW480 cells incubated for 48 hrs by CCK-8 assay

SW-620 = test: cells; conditions: Homo sapiens, SW-620, 48 h
Description: Antiproliferative activity against human SW-620 cells incubated for 48 hrs by CCK-8 assay

[3] = Clearance in Sprague-Dawley rat plasma at 5 mg/kg, iv after 0.083 to 24 hrs by LC-MS analysis; type: ADME, organism-based; conditions: time 0.083-24 hrs
[4] = MRT (0 to 24 hrs) in Sprague-Dawley rat plasma at 5 mg/kg, iv after 0.083 to 24 hrs by LC-MS analysis; type: ADME, organism-based; conditions: time 0.083-24 hrs
[5] = Tmax in Sprague-Dawley rat plasma at 15 mg/kg, po after 0.25 to 24 hrs by LC-MS analysis; type: ADME, organism-based; conditions: time 0.25-24 hrs
[6] = Oral bioavailability in Sprague-Dawley rat plasma at 15 mg/kg after 0.25 to 24 hrs by LC-MS analysis; type: ADME, organism-based; conditions: time 0.25-24 hrs
[7] = Cmax in Sprague-Dawley rat plasma at 15 mg/kg, po after 0.25 to 24 hrs by LC-MS analysis; type: ADME, organism-based; design: time lower 0.25 hrs, dose 15 mg/kg, time upper 24 hrs, route po
in vivo [8] = conditions: Sprague-Dawley, rat, in vivo, iv, 5 mg/kg
[9] = Terminal half life in Sprague-Dawley rat plasma at 15 mg/kg, po after 0.25 to 24 hrs by LC-MS analysis; type: ADME, organism-based; conditions: time 0.25-24 hrs, read-out: beta t1/2 (converted)
[10] = Cmax in Sprague-Dawley rat plasma at 5 mg/kg, iv after 0.083 to 24 hrs by LC-MS analysis; type: ADME, organism-based; design: dose 5 mg/kg, time 0.083-24 hrs, route iv
[11] = Terminal half life in Sprague-Dawley rat plasma at 5 mg/kg, iv after 0.083 to 24 hrs by LC-MS analysis; type: ADME, organism-based; conditions: time 0.083-24 hrs, read-out: beta t1/2 (converted)
in vivo [12] = conditions: Sprague-Dawley, rat, in vivo, po, 15 mg/kg
[13] = MRT (0 to 24 hrs) in Sprague-Dawley rat plasma at 15 mg/kg, po after 0.25 to 24 hrs by LC-MS analysis; type: ADME, organism-based; conditions: time 0.25-24 hrs
[14] = biological target: T1, ATP-dependent Clp protease proteolytic subunit, mitochondrial; conditions: filed as agonist
Description: Binding affinity to human CLpP assessed as change in enthalpy by ITC method

Homo sapiens [15] = species: Homo sapiens; conditions: filed as agonist
Description: Binding affinity to human CLpP Y138F/Q107A double mutant assessed as change in entropy by ITC method

HCT-116 [16] = conditions: Homo sapiens, dose 12.5-50 nM, time 14.0 day
Homo sapiens [17] = species: Homo sapiens; conditions: filed as agonist; remark: listed apart in the source
Description: Binding affinity to human CLpP Y138F/Q107A double mutant assessed as change in enthalpy by ITC method

[18] = biological target: T1, ATP-dependent Clp protease proteolytic subunit, mitochondrial; conditions: filed as agonist, dose 100.0 µM, time 30.0 min
[19] = biological target: T1, ATP-dependent Clp protease proteolytic subunit, mitochondrial; conditions: filed as agonist; remark: listed apart in the source
Description: Binding affinity to human CLpP assessed as change in entropy by ITC method

[20] = Stability in human liver microsomes assessed as intrinsic clearance at 1.5 uM measured upto 90 mins in presence of NADPH by LC/MS analysis; type: ADME, Microsome; conditions: read-out: CLH
[21] = Stability in rat liver microsomes assessed as half life at 1.5 uM measured upto 90 mins in presence of NADPH by LC/MS analysis; type: ADME, Microsome; conditions: 1.5 h
[22] = Stability in human liver microsomes assessed as half life at 1.5 uM measured upto 90 mins in presence of NADPH by LC/MS analysis; type: ADME, Microsome; conditions: microsomes, 1.5 h, 1.5 µM
[23] = Aqueous solubility of the compound agitated for 24 hrs by HPLC analysis; type: physicochemical; conditions: buffer
[24] = 1-octanol/water partition coefficient, log P of the compound agitated for 4 hrs measured by shake flask assay based HPLC analysis; type: physicochemical

T1 sequence (Q16740 whole entry, the tested form may be a part): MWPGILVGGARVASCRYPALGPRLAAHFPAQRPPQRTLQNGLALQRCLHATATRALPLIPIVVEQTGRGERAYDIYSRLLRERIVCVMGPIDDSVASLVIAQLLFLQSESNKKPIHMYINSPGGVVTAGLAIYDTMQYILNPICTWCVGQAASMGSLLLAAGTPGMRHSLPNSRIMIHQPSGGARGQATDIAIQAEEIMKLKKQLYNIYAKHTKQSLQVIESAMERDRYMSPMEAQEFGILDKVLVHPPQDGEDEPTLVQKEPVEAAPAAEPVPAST

Structure (SMILES) | EC50 [1] [nM] | IC50 (HCT-116 [2]) [nM] | further results
Cc1ccccc1CN1CCn2c1nc(=O)c1c2CCN(Cc2ccccc2C#N)C1 | 660 | > 10000 | –
CN1CCn2c1nc(=O)c1c2CCN(Cc2ccccc2)C1 | > 10000 | > 10000 | –
CCN1CCc2c(c(=O)nc3n2CCN3Cc2ccccc2C)C1 | > 10000 | > 10000 | –
O=c1nc2n(c3c1CN(Cc1ccccc1)CC3)CCN2Cc1ccc(F)c(F)c1 | 300 | 100 | IC50 (DLD-1): 150 nM; IC50 (HT-29): 50 nM; IC50 (HCT-15): 200 nM; IC50 (SW480): 120 nM; IC50 (SW-620): 150 nM
Cc1cccc(CN2CCn3c2nc(=O)c2c3CCN(Cc3ccccc3)C2)c1 | 390 | 300 | –
CCN1CCn2c1nc(=O)c1c2CCN(Cc2ccccc2)C1 | > 10000 | > 10000 | –
Cc1ccccc1CN1CCn2c1nc(=O)c1c2CCN(Cc2ccc(F)cc2F)C1 | 980 | > 10000 | –
O=c1nc2n(c3c1CN(Cc1ccccc1)CC3)CCN2CC1CCCCC1 | 130 | 2460 | –
O=c1nc2n(c3c1CN(Cc1ccccc1)CC3)CCN2Cc1cccnc1 | 1040 | > 10000 | –
COc1ccc(CN2CCn3c2nc(=O)c2c3CCN(Cc3ccccc3)C2)cc1 | 500 | 1160 | –
O=c1nc2n(c3c1CN(Cc1ccccc1)CC3)CCN2Cc1ccncc1 | 1130 | > 10000 | –
O=c1nc2n(c3c1CN(Cc1ccccc1)CC3)CCN2c1ccccc1 | 1040 | > 10000 | –
Cc1ccccc1CN1CCn2c1nc(=O)c1c2CCN(CCCCc2ccccc2)C1 | > 10000 | > 10000 | –
O=c1nc2n(c3c1CN(Cc1ccccc1)CC3)CCN2CCc1ccccc1 | 420 | > 10000 | –
Cc1ccccc1CN1CCn2c1nc(=O)c1c2CCN(CC(C)C)C1 | > 10000 | > 10000 | –
Cc1ccccc1CN1CCCn2c1nc(=O)c1c2CCN(Cc2ccccc2)C1 | 3520 | > 10000 | –
O=c1nc2n(c3c1CN(Cc1ccccc1)CC3)CCN2Cc1ccccc1Cl | 190 | 310 | –
Cc1ccccc1CN1CCn2c1nc(=O)c1c2CCN(c2nncs2)C1 | > 10000 | > 10000 | –
Cc1ccccc1CN1C(=O)C2=C(CCN(Cc3ccccc3)C2)N2CCN=C12.Cl.Cl.O | – | – | clearance [3]: 42.7 mL/min/kg; MRT last [4]: 51.6 min; Tmax [5]: 25.2 min; bioavailability [6]: 15.2%; Cmax [7]: 566 ng/mL; AUC(0-t) (in vivo [8]): 1960 ng·h/mL; half-life [9]: 63 min; Cmax [10]: 2770 ng/mL; half-life [11]: 54.6 min; AUC(0-t) (in vivo [12]): 894 ng·h/mL; MRT last [13]: 1.46 h
Cc1ccc(CN2CCn3c2nc(=O)c2c3CCN(Cc3ccccc3)C2)cc1 | 320 | 210 | –
Cc1ccc(CN2CCc3c(c(=O)nc4n3CCN4Cc3ccccc3C)C2)cc1 | 640 | 5310 | –
Cc1ccccc1CN1CCn2c1nc(=O)c1c2C(F)(F)CN(Cc2ccccc2)C1 | 500 | 5100 | –
O=c1nc2n(c3c1CN(Cc1ccccc1)CC3)CCN2Cc1ccc(F)cc1F | 160 | 100 | IC50 (DLD-1): 90 nM; IC50 (HT-29): 80 nM; IC50 (HCT-15): 120 nM; IC50 (SW480): 120 nM; IC50 (SW-620): 90 nM
COc1ccccc1CN1CCn2c1nc(=O)c1c2CCN(Cc2ccccc2)C1 | 110 | 1340 | –
O=c1nc2n(c3c1CN(Cc1ccccc1)CC3)CCN2Cc1ccccc1F | 440 | 290 | –
Cc1ccccc1CN1CCn2c1nc(=O)c1c2CCN(Cc2cccc(C#N)c2)C1 | 580 | 500 | –
O=c1nc2n(c3c1CN(Cc1ccccc1)CC3)CCN2Cc1cccc(F)c1 | 260 | 220 | –

Structure (SMILES) | EC50 [1] [nM] | IC50 (HCT-116 [2]) [nM] | further results
Cc1ccccc1CN1CCn2c1nc(=O)c1c2CCN(CC2CCCCC2)C1 | 2410 | > 10000 | –
O=c1nc2n(c3c1CN(Cc1ccccc1)CC3)CCN2Cc1cccc(Cl)c1 | 280 | 190 | –
O=c1nc2n(c3c1CN(Cc1ccccc1)CC3)CCN2Cc1ccc(C(F)(F)F)cc1 | 290 | 320 | –
Cc1cccc(CN2CCc3c(c(=O)nc4n3CCN4Cc3ccccc3C)C2)c1 | 510 | 1500 | –
O=c1nc2n(c3c1CN(Cc1ccccc1)CC3)CCN2Cc1ccc2ccccc2c1 | 360 | 310 | –
Cc1ccccc1CN1CCn2c1nc(=O)c1c2CCN(Cc2ccc(F)cc2)C1 | 640 | 10000 | –
O=c1nc2n(c3c1CN(Cc1ccccc1)CC3)CCN2Cc1cccc(Br)c1 | 360 | 610 | –
O=c1nc2n(c3c1CN(Cc1ccccc1)CC3)CCN2Cc1ccc(F)c(Br)c1 | – | – | deltaH [14]: -62.5 kJ/mol; deltaS (Homo sapiens [15]): 54.3 J/mol.K; inhibition (HCT-116 [16]): Active; deltaH (Homo sapiens [17]): -11.4 kJ/mol; ΔTm [18]: 20.9 °C; deltaS [19]: -77.4 J/mol.K
O=c1nc2n(c3c1CN(Cc1ccccc1)CC3)CCN2Cc1ccc(F)cc1 | 130 | 80 | IC50 (DLD-1): 90 nM; IC50 (HT-29): 400 nM; IC50 (HCT-15): 210 nM; IC50 (SW480): 170 nM; IC50 (SW-620): 190 nM
Cc1ccccc1CN1CCn2c1nc(=O)c1c2CCN(Cc2ccc(F)c(F)c2)C1 | 320 | 5000 | –
Cc1ccccc1CN1CCn2c1nc(=O)c1c2CCN(C(=O)c2ccccc2)C1 | > 10000 | > 10000 | –
Cc1ccccc1CN1CCn2c1nc(=O)c1c2CCN(CCc2ccccc2)C1 | 1090 | 6010 | –
COc1cccc(CN2CCn3c2nc(=O)c2c3CCN(Cc3ccccc3)C2)c1 | 100 | 1200 | –
Cc1ccccc1CN1CCn2c1nc(=O)c1c2CCN(C(=O)Cc2ccccc2)C1 | > 10000 | > 10000 | –
Cc1ccccc1CN1CCn2c1nc(=O)c1c2CCN(Cc2cccnc2)C1 | 1640 | > 10000 | –
CC(C)CCN1CCn2c1nc(=O)c1c2CCN(Cc2ccccc2)C1 | 450 | 4200 | –
Cc1ccccc1CN1CCn2c1nc(=O)c1c2CCN(CC2CC2)C1 | > 10000 | > 10000 | –
O=c1nc2n(c3c1CN(Cc1ccccc1)CC3)CCN2Cc1ccc(Br)c(F)c1 | 210 | 110 | –
O=c1nc2n(c3c1CN(Cc1ccccc1)CC3)CCN2Cc1ccc(Br)cc1 | 400 | 550 | –
Cc1ccccc1CN1CCn2c1nc(=O)c1c2CCN(Cc2ccncc2)C1 | 1610 | > 10000 | –
O=C(c1ccc(F)cc1)C1CCN(CCn2c(=O)[nH]c3ccccc3c2=O)CC1 [KETANSERIN] | – | – | CLint scaled at 1.5 µM [20]: 51.1 mL/min/kg; t1/2 [21]: 18.5 min; t1/2 [22]: 34 min
Cc1ccccc1CN1C(=O)C2=C(CCN(Cc3ccccc3)C2)N2CCN=C12 [DORDAVIPRONE] | – | – | CLint scaled at 1.5 µM [20]: 187 mL/min/kg; t1/2 [21]: 10.5 min; solubility at 24 h [23]: 200 µM (≈ 77.4 µg/mL); logP at 4 h [24]: 2.93
O=c1nc2n(c3c1CN(Cc1ccccc1)CC3)CCN2Cc1ccc(Cl)cc1 | 300 | 80 | IC50 (DLD-1): 100 nM; IC50 (HT-29): 70 nM; IC50 (HCT-15): 250 nM; IC50 (SW480): 100 nM; IC50 (SW-620): 170 nM
O=c1nc2n(c3c1CN(Cc1ccccc1)CC3)CCN2CC1CC1 | 1220 | > 10000 | –
O=c1nc2n(c3c1CN(Cc1ccccc1)CC3)CCN2Cc1ccco1 | 1760 | > 10000 | –
O=c1nc2n(c3c1CN(Cc1ccccc1)CC3)CCN2Cc1ccccc1 | 120 | 520 | –
